Molecules are shown by their SMILES.

In the first test the test system is human σ1 receptor and human μ-opioid receptor. As to the kind of experiment: Human σ1 receptor and human μ-opioid receptor radioligand binding assays, reported on one dual scale. To be noted: combined class for both receptors; [3H](+)-pentazocine on transfected HEK-293 membranes (σ1), [3H]-DAMGO on transfected CHO-K1 membranes (μ). Details: key to μ and σ1 dual (binding expressed as Ki): +: Both Ki-μ and Ki-σ1>500 nM; ++: One Ki<500 nM while the other Ki is >=500 nM; +++: Both Ki-μ and Ki-σ1<500 nM; ++++: Both Ki-μ and Ki-σ1<100 nM. As to the method:
Human σ1 Receptor Radioligand Assay
To investigate binding properties of test compounds to human σ1 receptor, transfected HEK-293 membranes and [^3H](+)-pentazocine (Perkin Elmer, NET-1056), as the radioligand, were used. The assay was carried out with 7 μg of membrane suspension, 5 nM of [^3H](+)-pentazocine in either absence or presence of either buffer or 10 μM Haloperidol for total and non-specific binding, respectively. Binding buffer contained Tris-HCl 50 mM at pH 8. Plates were incubated at 37° C. for 120 minutes. After the incubation period, the reaction mix was then transferred to MultiScreen HTS, FC plates (Millipore), filtered and plates were washed 3 times with ice-cold 10 mM Tris-HCL (pH7.4). Filters were dried and counted at approximately 40% efficiency in a MicroBeta scintillation counter (Perkin-Elmer) using EcoScint liquid scintillation cocktail
Human μ-Opioid Receptor Radioligand Assay
To investigate binding properties of test compounds to human μ-opioid receptor, transfected CHO-K1 cell membranes and [^3H]-DAMGO (Perkin Elmer, ES-542-C), as the radioligand, were used. The assay was carried out with 20 μg of membrane suspension, 1 nM of [^3H]-DAMGO in either absence or presence of either buffer or 10 μM Naloxone for total and non-specific binding, respectively. Binding buffer contained Tris-HCl 50 mM, MgCl2 5 mM at pH 7.4. Plates were incubated at 27° C. for 60 minutes. After the incubation period, the reaction mix was then transferred to MultiScreen HTS, FC plates (Millipore), filtered and plates were washed 3 times with ice-cold 10 mM Tris-HCL (pH 7.4). Filters were dried and counted at approximately 40% efficiency in a MicroBeta scintillation counter (Perkin-Elmer) using EcoScint liquid scintillation cocktail.
For `O=C1NCC2(CCN(Cc3ccccc3)CC2)c2ccccc21` [Example 1, 1′-Benzyl-2,3-dihydro-1H-spiro[isoquinoline-4,4′-piperidin]-1-one], the “μ and σ1 dual (binding expressed as Ki)” value is listed as “++”. Still for that read-out and setting: next, `CN1CC2(CCN(Cc3ccccc3)CC2)c2ccccc2C1=O` [Example 2, 1′-Benzyl-2-methyl-2,3-dihydro-1H-spiro[isoquinoline-4,4′-piperidin]-1-one]: “++”; `CCN1CC2(CCN(Cc3ccccc3)CC2)c2ccccc2C1=O` [Example 3, 1′-Benzyl-2-ethyl-2,3-dihydro-1H-spiro[isoquinoline-4,4′-piperidin]-1-one]: “++”.

Regarding `CC(=O)N1Cc2ccccc2C2(CCN(CCc3ccccc3)CC2)C1` [Example 10, 1-(1′-Phenethyl-1H-spiro[isoquinoline-4,4′-piperidine]-2(3H)-yl)ethanone], the “μ and σ1 dual (binding expressed as Ki)” value is recorded as “++”. On the same count and under the same terms, next, `O=C1c2ccccc2C2(CCN(CCc3ccccc3)CC2)CN1CCO` [Example 11, 2-(2-Hydroxyethyl)-1′-phenethyl-2,3-dihydro-1H-spiro[isoquinoline-4,4′-piperidin]-1-one]: “++”; `O=C1c2ccccc2C2(CCN(Cc3ccccc3)CC2)CN1CCO` [Example 7, 1′-Benzyl-2-(2-hydroxyethyl)-2,3-dihydro-1H-spiro[isoquinoline-4,4′-piperidin]-1-one]: “++”.

The same test, now with this note: combined class for both receptors; [3H](+)-pentazocine on transfected HEK-293 membranes (σ1), [3H]-DAMGO on transfected CHO-K1 membranes (μ); read-out: μ and σ1 dual (binding expressed as Ki).
On to `CN1CC2(CCN(CCc3ccccc3)CC2)c2ccccc2C1=O` [Example 5, 2-Methyl-1′-phenethyl-2,3-dihydro-1H-spiro[isoquinoline-4,4′-piperidin]-1-one], for which the inhibition constant Ki was less than 500 nM. Consider `CCN1CC2(CCN(CCc3ccccc3)CC2)c2ccccc2C1=O` [Example 6, 2-ethyl-1′-phenethyl-2,3-dihydro-1H-spiro[isoquinoline-4,4′-piperidin]-1-one], for which the Ki was less than 500 nM. Same read-out and setting: the same measure for `O=C1NCC2(CCN(CCc3ccccc3)CC2)c2ccccc21` [Example 4, 1′-Phenethyl-2,3-dihydro-1H-spiro[isoquinoline-4,4′-piperidin]-1-one]: less than 500 nM; for `c1ccc(CCN2CCC3(CC2)CNCc2ccccc23)cc1` [Example 8, 1′-Phenethyl-2,3-dihydro-1H-spiro[isoquinoline-4,4′-piperidine]]: less than 500 nM.

`CN1Cc2ccccc2C2(CCN(CCc3ccccc3)CC2)C1` [Example 9, 2-Methyl-1′-phenethyl-2,3-dihydro-1H-spiro[isoquinoline-4,4′-piperidine]]: the Ki is less than 500 nM.

One may read the Ki as a dissociation constant, usually derived from enzyme kinetics or from competition with a known ligand.

The record behind these values is patent publication US10508114B2, “Spiro-isoquinoline-4,4′-piperidine compounds having multimodal activity against pain” (ESTEVE PHARMACEUTICALS, S.A., priority 2015, dated 2019).
